# According to patent US9265766B2, “Methods for altering mRNA splicing and treating familial dysautonomia by administering benzyladenine” (The General Hospital Corporation, priority 2003, dated 2016):
# Entries after “also recorded” stand apart in the source; their conditions may differ. Read-outs that look alike come from different tables or passages of the source.
# How the values were obtained:
# [1] = test system: IKBKAP WT:MU transcript ratio; assay: IKBKAP nonsense mediated decay analysis (cycloheximide) in FD lymphoblast cell lines; assay type: cell-based, human; details: 50 μg/ml cycloheximide, four hours, FD cells
# Description: RT-PCR amplification and fractionation of the amplified product on a 1.5% agarose gel was performed on cell extracts. WT:MU IKBKAP transcript ratios were determined using the integrated density value (IDV) obtained for each band and are shown beneath each lane. Primer sequences and PCR conditions have been previously described^4
# Cell Culture and Treatment.
# The IVS20^+6T→C mutation in IKBKAP leads to a frameshift and a premature termination codon in exon 21, which is expected to target the mutant transcript for decay via the nonsense-mediated mRNA decay (NMD) pathway^15. […] FD cells were exposed to cycloheximide, a translation inhibitor, to inhibit NMD of the mutant transcript^16.
# SMN2 exon 7 = details: cited from earlier work
# IKAP protein = assay: Western blot of IKAP protein in FD lymphoblast cell lines; assay type: cell-based, human; details: increasing concentrations of kinetin, 72 hours, FD lymphoblast cells
# Source text: Western Blot Analysis. […] Extracted protein was run on a 6% polyacrylamide gel. The samples were transferred to nitrocellulose and stained with Ponceau-S to visualize protein loading. IKAP was detected using a monoclonal antibody raised against amino acids 796-1008 of IKAP (BD Bioscience) that detects the 150 kD full-length IKAP protein. The same blot was probed with an antibody to insulin-degrading enzyme (IDE) as a protein loading control. Bands were quantitated using an Alpha 2000™ Image Analyzer.
# [2] = test system: FD (MU) IKBKAP minigene exon 20; assay: IKBKAP minigene splicing assay, FD (MU) construct in HEK293 cells; assay type: cell-based, human; details: RT-PCR with T7 and BGH-R
# Description: (§1) In Vivo IKBKAP Minigene Splicing Assay. IKBKAP genomic DNA was amplified from an unaffected and an FD individual using primers in exon 19 and 21: EX19F-5′-[…] (SEQ ID NO:6) and EX21R-5′-[…] (SEQ ID NO:7). The amplified products were cloned into pcDNA3.1/V5-His Topo (Invitrogen) and sequenced for verification. […] Minigene constructs were transiently transfected 12 hours later using Genejuice (Novagen) as directed by the manufacturer. After 48 hours RNA was isolated using the RNAeasy kit (Qiagen) and reverse transcribed using Superscript™ II reverse transcriptase (Invitrogen) as described^4. PCR was performed using vector specific primers: T7 ([…]) (SEQ ID NO:8) and BGHR ([…]) (SEQ ID NO:9), which amplify both WT and MU transcripts, or the MU specific primer EX19/21F ([…]) (SEQ ID NO:10) and BGH-R to specifically amplify only MU transcripts. PCR was performed as follows: 26 cycles of [94° C., 30 s; 56° C., 30 s; 72° C., 30 s] and products resolved on a 1.5% agarose gel and visualized by ethidium bromide staining.
# (§2) These constructs were transfected into HEK293 cells and RNA was amplified using vector-specific primers to avoid amplification of the endogenous IKBKAP message. […] Introduction of the FD mutation into the construct increased exon 20 skipping as predicted.
# [3] = test system: NF1 minigene (exons 35 to 37, C>T at 6724); assay: NF1 minigene splicing assay in HEK293 cells; assay type: cell-based, human; details: HEK293 cells transfected with NF1 minigene, with vs without kinetin
# Description: NF1 genomic DNA was amplified from an unaffected and an NF1 individual using primers at the 5′ end of exon 35 and the 3′ end of exon 37. […] The amplified products were cloned into pcDNA3.1/V5-His Topo (Invitrogen) and sequenced for verification. […] Minigene constructs were transiently transfected 12 hours later using Genejuice (Novagen) as directed by the manufacturer. After 48 hours RNA was isolated using the RNAeasy kit (Qiagen) and reverse transcribed using Superscript™ II reverse transcriptase (Invitrogen) as described^4. PCR was performed using vector specific primers: T7 ([…]) (SEQ ID NO:8) and BGHR ([…]) (SEQ ID NO:9), which amplify both WT and MU transcripts. PCR was performed as follows: 30 cycles of [94° C., 30 s; 58° C., 30 s; 72° C., 30 s] and products resolved on a 1.5% agarose gel and visualized by ethidium bromide staining.
# [4] = test system: IKBKAP splicing (WT:MU IKBKAP mRNA); assay: WT:MU IKBKAP mRNA ratio by RT-PCR (IDV) in FD lymphoblast cell lines; drug screen; assay type: cell-based, human; details: for correct IKBKAP splicing / production of wild-type IKBKAP transcript in FD cells: 10 μM compound in DMSO, 72 hours, FD lymphoblast cell line
# Description: Drug Screen. The panel of 1040 independent compounds used was specifically designed for the NINDS sponsored Neurodegeneration Drug Screening Consortium (MicroSource Discovery Systems). A single FD lymphoblast cell line was cultured in 24 well format and treated with 10 μM compound dissolved in DMSO for 72 hours. RNA was extracted using Tri-Reagent™ (Molecular Research Center) and reverse transcription and IKBKAP PCR was performed as previously described^4.
# An assay that provides stable and consistent measurement of the ratio of WT:MU FD IKBKAP mRNA splice products in lymphoblast cell lines was developed^4. This assay was employed as part of the Neurodegeneration Drug Screening Consortium′ to identify compounds that increase the relative production of WT mRNA. A single, standard FD lymphoblast cell line was assayed after 72 hours in the presence of 10 μM test drug, using compounds dissolved in DMSO.
# [5] = test system: rat liver and kidney tissue; details: in vivo, po; cited from earlier work
# human skin fibroblasts = details: cultured human skin fibroblasts; cited from earlier work
# [6] = test system: WT IKBKAP minigene exon 20; assay: IKBKAP minigene splicing assay, WT construct in HEK293 cells; assay type: cell-based, human; details: for inclusion of exon 20, WT minigene construct: RT-PCR with T7 and BGH-R
# Description: as §1, §2
# FD lymphoblast cells = assay: Cellular toxicity in FD lymphoblast cells; assay type: cell-based, human; details: 400 μM
# Description: By contrast, total IKBKAP mRNA was relatively unaffected, with a slight increase (˜1.5 fold) being detected only at doses higher than 50 μM (data not shown).
# [7] = test system: IKBKAP mRNA (WT, MU, total); assay: Real-time quantitative PCR of IKBKAP transcripts in FD lymphoblast cells; assay type: cell-based, human; details: doses higher than 50 μM (data not shown)
# MYO5A exon 31 splicing = details: reference 13; cited from earlier work
structure (smiles),measurement,setting,value
C[C@@H]1C[C@@H]([C@H](O)CC2CC(=O)NC(=O)C2)C(=O)[C@@H](C)C1 [cycloheximide],"WT:MU IKBKAP transcript ratio, cycloheximide alone",[1],decreasing the WT:MU transcript ratio
"c1coc(CNc2ncnc3nc[nH]c23)c1 [kinetin, 6-furfurylaminopurine]",effect on exon 7 of SMN2,SMN2 exon 7,no effect on skipping of exon 7
same,IKAP protein production,IKAP protein,increase in production of IKAP protein
same,"inclusion of exon 20, FD (MU) minigene construct",[2],enhanced inclusion of exon 20
same,"inclusion of exon 20, FD (MU) minigene construct",[2]; listed as Kinetin,enhances inclusion of exon 20
same,splicing of NF1 minigene,[3],altered splicing
same,correct IKBKAP splicing / production of wild-type IKBKAP transcript in FD cells,[4],dramatically enhanced correct splicing
same,correct IKBKAP splicing / production of wild-type IKBKAP transcript in FD cells,[4]; listed as Kinetin,significantly increases production of wild-type IKBKAP transcript
same,MU IKBKAP band by densitometry,"[4]; 100 μM kinetin, RT-PCR gel",barely discernable
same,toxicity when administered orally to rats,[5],much less toxicity as compared to indoleacetic acid
same,cellular changes associated with in vitro aging of human skin cells,human skin fibroblasts,delay or prevent a range of cellular changes
same,maximum in vitro life span of human skin cells,human skin fibroblasts,did not alter
same,exon 20 skipping in WT construct transcripts (MU-specific PCR),[6]; MU-specific primer EX19/21F,completely corrected; also recorded: absence of MU transcript in the WT lane
same,"inclusion of exon 20, WT minigene construct",[6],enhanced inclusion of exon 20
same,"inclusion of exon 20, WT minigene construct",[6]; listed as Kinetin,enhances inclusion of exon 20
same,cellular toxicity,FD lymphoblast cells,some cellular toxicity
same,increase in total IKBKAP mRNA,[7],~1.5 fold
"CC[C@@]1(O)C[C@H](O[C@H]2C[C@H](N(C)C)[C@H](O[C@H]3C[C@H](O)[C@H](O[C@H]4CCC(=O)[C@H](C)O4)[C@H](C)O3)[C@H](C)O2)c2c(cc3c(c2O)C(=O)c2c(O)cccc2C3=O)[C@H]1C(=O)OC [aclarubicin, reference compound]",effect on exon 7 of SMN2,SMN2 exon 7,can promote the inclusion of exon 7
same,correct IKBKAP splicing / production of wild-type IKBKAP transcript in FD cells,[4],no effect on IKBKAP splicing
same,inclusion of alternatively spliced exons in MYO5A (literature),MYO5A exon 31 splicing,neither of these drugs promotes inclusion
"c1ccc(CNc2ncnc3nc[nH]c23)cc1 [benzyladenine, 6-benzylaminopurine]",enhancement of inclusion of exon 20 in IKBKAP transcripts,"[4]; by 100 μM, FD lymphoblast assay",approximately 2 fold
"CC(C)=CCNc1ncnc2nc[nH]c12 [2iP, 6-(γ,γ-dimethyallylamino)purine, reference compound]",effect on WT:MU IKBKAP ratio,"[4]; FD lymphoblast assay, tested at 1, 10, 50 and 100 μM",neither zeatin nor 2iP (dissolved in DMSO at 10 mM) had any effect
"CC(=CCNc1ncnc2nc[nH]c12)CO [zeatin, 6-(4-hydroxy-3-methylbut-2-enylamino)purine, reference compound]",effect on WT:MU IKBKAP ratio,[4],neither zeatin nor 2iP (dissolved in DMSO at 10 mM) had any effect
"O=C(O)Cc1c[nH]c2ccccc12 [IAA, indoleacetic acid, reference compound]",lipid peroxidation in liver and kidney tissue,[5],resulting in lipid peroxidation synthesis
